In brackets after ≈: the same amount, converted by molar mass. Several values for one entry are separate records, joined by “and”; a condition that tells them apart may be missing. Equal entries are not always repeated. Where two headings read alike, the source gives them in different places.
How the values were obtained:
[1] = system: Pseudomonas culture
Procedure: (§1) Phenol Resistance. Five-one ml aliquots of each dilution of the test phenol were placed into sterile test tubes and allowed to equilibrate in a 20±2° C. water bath. At 30 second intervals, 0.5 ml of each challenge culture was added to the appropriate dilutions of phenol, agitated, and replaced into the water bath: After the appropriate exposure times of 5, 10, and 15 minutes, a loopful of suspension was removed from the assay tubes and transferred to tubes of letheen broth (LETH). The tubes of LETH were incubated at 37±2° C. for 2 days.

[2] = system: Salmonella culture; details: 5, 10 or 15 min
Procedure: as §1

[3] = system: Staphylococcus culture
Procedure: as §1

[4] = system: Mycobacterium bovis BCG (TMC 1028); format: cell-based
[5] = target: Moloney murine leukemia virus reverse transcriptase (MoMuLV) (Moloney murine leukemia virus, UniProt P03355); assay: Reverse transcriptase inhibition; format: biochemical; details: 37° C., 24 hours; AZT control at 0.625 microgram/ml
Procedure: A commercial viral enzyme preparation of Moloney murine leukemia virus reverse transcriptase (MoMuLV) having Poly(A)dT (primer for RT) was used. […] of the MoMuLV preparation was combined with a mixture of dATP, dGTP, dCTP and [^3H]dTTP nucleotides.
This mixture was combined with 3 ml of the inhibitor to be tested, and the resultant mixture was incubated at 37° C. for 24 hours.
A negative control experiment was performed in which phosphate buffer saline (PBS, 3 ml) was used instead of the inhibitor.
A positive control experiment was performed in which a known reverse transcriptase inhibitor (3 ml of AZT at a concentration 0.625 microgram/ml) was used instead of the tested inhibitor.
The reaction was stopped by adding 25 ml EDTA and 25 ml TCA. The reaction mixture was then spotted on ionic paper (DEAE paper). The paper was washed three times with TCA and then with ethyl alcohol. The filter paper was air dried and put in a scintillation vial with a scintillation cocktail. Radioactivity was measured by a liquid scintillation counter (Blue Star).

[6] = system: E. coil; assay: Zone of inhibition, agar well; details: E.coli; antibiotic amount (5-200 mcg)
[7] = system: Ps. Aeruginosa; assay: Zone of inhibition, agar well; details: antibiotic amount (5-200 mcg)
[8] = system: B. subtilis; assay: Zone of inhibition, agar well; details: antibiotic amount (1-200 mcg)
[9] = system: MRSA 2; assay: Zone of inhibition, agar well; details: antibiotic amount (1-200 mcg)
[10] = system: S. aureus ATCC 6538 P; assay: Zone of inhibition, agar well; details: antibiotic amount (1-200 mcg)
[11] = system: S.typhi; assay: Zone of inhibition, agar well; details: antibiotic amount (5-200 mcg)
[12] = system: K. pneumoniae; assay: Zone of inhibition, agar well; details: antibiotic amount (5-200 mcg)
[13] = system: Escherichia coli MDR clinical isolate (stool); assay: Antibiotic sensitivity, Kirby Bauer; details: E.c; Kirby-Bauer antibiotic disc
[14] = target: T1, Hepatitis B virus DNA polymerase (Hepatitis B virus genotype D subtype ayw, UniProt P03156); assay: DNA polymerase inhibition; format: biochemical; details: read-out: % Inhibition (DNA polymerase)
T1 construct: from tissue; host or cells: Hepatitis B virus isolated from human subjects, lysed
Procedure: Overall approach. Hepatitis B viral extracts from human subjects are incubated with radiolabelled nucleotides and an active inhibitor. Percent inhibition is calculated based on the amount of de novo viral nucleic acid synthesized with respect to lamivudine as a positive control and phosphate buffer saline (PBS) as a negative control.
Specific procedure. Isolated Hepatitis B virus was lysed to extract free polymerase enzyme, which is free from contaminating enzymes. A virus extract (25 ml) was added to a reaction mixture comprising dATP, dGTP, dCTP and [^3H]dTTP nucleotides (25 ml). Active inhibitor (3 ml) was added to the mixture comprising virus extract and nucleotides. The resultant mixture was incubated at 37° C. for 24 hours.
A separate negative control experiment was performed in which phosphate buffer saline (PBS, 3 ml) was used instead of the inhibitor (3 ml).
A separate positive control experiment was performed in which a known DNA polymerase inhibitor (3 ml of lamivudine at a concentration 3 mg/ml) was used instead of the tested inhibitor (3 ml).
The reaction was stopped by adding 25 ml EDTA and 25 ml TCA (trichloroacetic acid). The reaction mixture was then spotted on ionic paper (DEAE paper). The paper was washed three times with TCA and then with ethyl alcohol. […] Radioactivity was measured by a liquid scintillation counter (Blue Star). […]

[15] = system: MRSA clinical isolate; assay: MIC, macrodilution broth
[16] = system: Pseudomonas aeruginosa MDR clinical isolate (sputum); assay: Antibiotic sensitivity, Kirby Bauer
[17] = system: MRSA clinical isolate (pus); assay: Antibiotic sensitivity, Kirby Bauer; details: Kirby-Bauer antibiotic disc
[18] = system: S. pyogenes; assay: MIC/MBC broth microdilution; format: cell-based, Streptococcus pyogenes; details: Streptococcus pyogenes
[19] = system: S. mutans; assay: MIC/MBC broth microdilution; format: cell-based, Streptococcus mutans; details: Streptococcus mutans
[20] = system: S gordonii; assay: MIC/MBC broth microdilution; format: cell-based, Streptococcus gordonii; details: Streptococcus gordonii
[21] = system: S. pneumoniae; assay: MIC/MBC broth microdilution; format: cell-based; details: Streptococcus pneumoniae
[22] = system: S. faecalis; assay: MIC/MBC broth microdilution; format: cell-based, Streptococcus faecalis; details: Enterococcus faecalis
[23] = system: S. aureus; assay: MIC/MBC broth microdilution; format: cell-based, Staphylococcus aureus; details: Staphylococcus aureus
[24] = system: P. aeruginosa; assay: MIC/MBC broth microdilution; format: cell-based, Pseudomonas aeruginosa; details: Pseudomonas aeruginosa
[25] = system: E. coli; assay: MIC/MBC broth microdilution; format: cell-based, Escherichia coli; details: Escherichia coli
[26] = system: E. aerogenes; assay: MIC/MBC broth microdilution; format: cell-based, Enterobacter aerogenes; details: Klebsiella aerogenes; E. aerogenes; read-out: MIC
[27] = system: E. cloacae; assay: MIC/MBC broth microdilution; format: cell-based; details: Enterobacter cloacae
[28] = system: S. typhimurium; assay: MIC/MBC broth microdilution; format: cell-based; details: Salmonella enterica, TYPHIMURIUM
[29] = system: S arizona; assay: MIC/MBC broth microdilution; format: cell-based, Salmonella arizona; details: Salmonella
[30] = system: S. boydii; assay: MIC/MBC broth microdilution; format: cell-based, Shigella boydii; details: Shigella boydii
[31] = system: K. pneumoniae; assay: MIC/MBC broth microdilution; format: cell-based, Klebsiella pneumoniae; details: Klebsiella pneumoniae
[32] = system: K. oxytoca; assay: MIC/MBC broth microdilution; format: cell-based; details: Klebsiella oxytoca

T1 sequence (P03156 whole entry): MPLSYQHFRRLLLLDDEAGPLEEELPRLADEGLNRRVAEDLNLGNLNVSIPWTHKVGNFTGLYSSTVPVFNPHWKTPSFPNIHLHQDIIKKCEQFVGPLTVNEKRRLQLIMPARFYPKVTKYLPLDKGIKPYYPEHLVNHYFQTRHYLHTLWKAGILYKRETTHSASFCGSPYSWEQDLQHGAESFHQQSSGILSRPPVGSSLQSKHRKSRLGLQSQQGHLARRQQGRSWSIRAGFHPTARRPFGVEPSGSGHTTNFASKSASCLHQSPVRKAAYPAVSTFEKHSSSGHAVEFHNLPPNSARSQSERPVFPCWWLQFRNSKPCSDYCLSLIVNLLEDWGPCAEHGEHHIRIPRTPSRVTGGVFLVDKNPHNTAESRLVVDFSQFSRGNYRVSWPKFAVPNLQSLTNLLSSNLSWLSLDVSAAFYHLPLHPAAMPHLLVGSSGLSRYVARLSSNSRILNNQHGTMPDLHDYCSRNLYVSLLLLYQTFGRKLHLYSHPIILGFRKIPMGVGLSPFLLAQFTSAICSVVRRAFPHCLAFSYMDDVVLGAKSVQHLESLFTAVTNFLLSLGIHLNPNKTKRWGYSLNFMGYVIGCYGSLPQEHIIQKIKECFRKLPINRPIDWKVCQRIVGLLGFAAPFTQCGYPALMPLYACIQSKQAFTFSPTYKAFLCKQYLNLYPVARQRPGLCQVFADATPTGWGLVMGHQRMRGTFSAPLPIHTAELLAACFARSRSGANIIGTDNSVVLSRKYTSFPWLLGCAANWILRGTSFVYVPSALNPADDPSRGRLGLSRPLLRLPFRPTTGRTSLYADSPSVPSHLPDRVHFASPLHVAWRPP

Oc1ccccc1 [phenol]
growth after phenol treatment ([1]; 1:80 phenol, 5 or 10 min): showed growth
growth after phenol treatment ([1]; 1:80 phenol, 15 min): no growth
growth after phenol treatment ([1]; 1:90 phenol, 5, 10 or 15 min): showed growth
growth after phenol treatment ([2]; 1:90 phenol): no growth
growth after phenol treatment ([2]; 1:100 phenol): showed growth
growth after phenol treatment ([3]; 1:60 phenol, 5 or 10 min): showed growth
growth after phenol treatment ([3]; 1:60 phenol, 15 min): no growth
growth after phenol treatment ([3]; 1:70 phenol, 5, 10 or 15 min): showed growth
log reduction [4]: ~1.81

Cc1cn([C@H]2C[C@H](N=[N+]=[N-])[C@@H](CO)O2)c(=O)[nH]c1=O [AZT, zidovudine]
% Inhibition (reverse transcriptase) [5]: 31.33% and 18.06%

Gentamycin
zone of inhibition, antibiotics [6]: Clear
zone of inhibition, antibiotics [7]: No inhibition
zone of inhibition, antibiotics [8]: 18 mm
zone of inhibition, antibiotics [9]: 11 mm
zone of inhibition, antibiotics [10]: 1Clear
zone of inhibition, antibiotics [11]: Clear
zone of inhibition, antibiotics [12]: 17 mm
Zone size (mm) [13]: 19 mm

Nc1ccn([C@@H]2CS[C@H](CO)O2)c(=O)n1 [lamivudine]
inhibition at 3000 µg/mL [14]: 31.3%

NCC[C@H](O)C(=O)N[C@@H]1C[C@H](N)[C@@H](O[C@H]2O[C@H](CN)[C@@H](O)[C@H](O)[C@H]2O)[C@H](O)[C@H]1O[C@H]1O[C@H](CO)[C@@H](O)[C@H](N)[C@H]1O [Amikacin]
Growth ([15]; Conc. 0.2 mcg/ml): +
Growth ([15]; Conc. 0.4 mcg/ml): +
Growth ([15]; Conc. 0.6 mcg/ml): +
Growth ([15]; Conc. 0.8 mcg/ml): −
Growth ([15]; Conc. 1 mcg/ml): −
Growth ([15]; Conc. 2 mcg/ml): −
Growth ([15]; Conc. 3 mcg/ml): −
Growth ([15]; Conc. 4 mcg/ml): −
Growth ([15]; Conc. 5 mcg/ml): −
MIC ([15]; Staphylococcus aureus, Nutrient Broth): 0.8 µg/mL (≈ 1.37 µM)
zone of inhibition, antibiotics [6]: Clear
zone of inhibition, antibiotics [11]: Clear
Zone size (mm) [13]: 20 mm
Zone size (mm) ([16]; Ps., Kirby-Bauer antibiotic disc): 9 mm
resistance of isolate ([16]; gram-negative isolate Pseudomonas): resistant
Zone size (mm) [17]: 22 mm

Co-Trimoxazole
zone of inhibition, antibiotics [6]: 24 mm
zone of inhibition, antibiotics [7]: Clear
zone of inhibition, antibiotics [8]: 15 mm
zone of inhibition, antibiotics [10]: Clear
zone of inhibition, antibiotics [11]: 27 mm
zone of inhibition, antibiotics [12]: 19 mm

CN(C)[C@@H]1C(O)=C(C(N)=O)C(=O)[C@@]2(O)C(O)=C3C(=O)c4c(O)cccc4[C@@](C)(O)[C@H]3C[C@@H]12 [Tetracycline]
MBC ([18]; read-out: MBC): > 5 µg/mL
MIC ([18]; read-out: MIC): 0.625 µg/mL (≈ 1.41 µM)
MBC ([19]; read-out: MBC): > 5 µg/mL
MIC ([19]; read-out: MIC): 0.625 µg/mL (≈ 1.41 µM)
MBC ([20]; read-out: MBC): 0.625 µg/mL (≈ 1.41 µM)
MIC ([20]; read-out: MIC): 0.156 µg/mL (≈ 0.351 µM)
MBC ([21]; read-out: MBC): 0.625 µg/mL (≈ 1.41 µM)
MIC ([21]; read-out: MIC): 0.078 µg/mL (≈ 0.176 µM)
MBC ([22]; read-out: MBC): > 5 µg/mL
MIC ([22]; read-out: MIC): 0.313 µg/mL (≈ 0.704 µM)
MBC ([23]; read-out: MBC): > 5 µg/mL
MIC ([23]; read-out: MIC): 0.313 µg/mL (≈ 0.704 µM)
MBC ([24]; read-out: MBC): 5 µg/mL (≈ 11.3 µM)
MIC ([24]; read-out: MIC): 0.078 µg/mL (≈ 0.176 µM)
MBC ([25]; read-out: MBC): > 5 µg/mL
MIC ([25]; read-out: MIC): 1.67 µg/mL (≈ 3.76 µM)
MIC [26]: > 5 µg/mL
MBC [27]: > 5 µg/mL
MIC ([27]; read-out: MIC): 1.67 µg/mL (≈ 3.76 µM)
MBC [28]: > 5 µg/mL
MBC ([29]; read-out: MBC): > 5 µg/mL
MIC ([29]; read-out: MIC): 0.625 µg/mL (≈ 1.41 µM)
MBC [30]: > 5 µg/mL
MBC [31]: > 5 µg/mL
MIC ([31]; read-out: MIC): 2.5 µg/mL (≈ 5.63 µM)
MBC [32]: > 5 µg/mL
zone of inhibition, antibiotics [6]: 19 mm
zone of inhibition, antibiotics [7]: No inhibition
zone of inhibition, antibiotics [9]: 0.7 mm
zone of inhibition, antibiotics [10]: 34 mm
zone of inhibition, antibiotics [11]: 16 mm
Zone size (mm) [17]: 27 mm
